# Tests used:
# [1] = system: Caenorhabditis elegans N2; assay: mean nematode size ln(EXT) after 48 h, plate-adjusted (DMSO control set to 6) (ln(EXT), control-adjusted); higher = larger nematodes / less growth inhibition; settings: exposure time 48 h
# Method in brief: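 C. elegans N2 larvae, synchronised at L1, grew for 48 h at 20°C in K-medium with killed OP50, 1% DMSO and 0.5–200 µM chemical. Mean size per well was derived from natural-logged Biosort extinction after a growth model removed debris. Adjustment across plates involved subtracting the vehicle control mean and adding 6.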
# [2] = system: Caenorhabditis elegans N2; assay: lowest effective concentration for larval growth inhibition (size below effect threshold); higher = less potent; settings: exposure time 48 h
# Method in brief: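 Log-transformed well means of per-worm extinction, read as size on a Biosort, came from 50 C. elegans N2 L1 larvae per 96-well grown 48 h at 20°C in K-medium with killed bacteria, 1% DMSO and 0.5 to 200 µM chemical. The lowest effective concentration is the first dose at which the plate-adjusted mean size is below the threshold and stays below it at every higher dose. The threshold is 5.665.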
Compound,mean nematode size ln(EXT) (ln) ([1]; 0.5 µM),mean nematode size ln(EXT) (ln) ([1]; 1 µM),mean nematode size ln(EXT) (ln) ([1]; 5 µM),mean nematode size ln(EXT) (ln) ([1]; 10 µM),mean nematode size ln(EXT) (ln) ([1]; 50 µM),mean nematode size ln(EXT) (ln) ([1]; 100 µM),mean nematode size ln(EXT) (ln) ([1]; 200 µM),lowest effective concentration [2] [µM]
Cc1cccc(Nc2cc(Cl)nc(SCC(=O)O)n2)c1C [Pirinixic acid],6.05,5.95,5.99,5.97,5.94,5.77,5.93,> 200
N[C@@H](Cc1c[nH]c2ccccc12)C(=O)O [L-Tryptophan],5.91,5.87,5.89,5.86,5.85,5.96,5.7,> 200
C[N+]1(C)CCCCC1 [Mepiquat chloride],5.73,5.8,6,5.91,5.96,6.13,5.9,> 200
CCCc1cc(=O)[nH]c(=S)[nH]1 [6-Propyl-2-thiouracil],5.8,5.84,5.82,5.91,5.8,5.88,5.74,> 200
CC(C)CC(C)(O)C#CC(C)(O)CC(C)C (racemic),5.77,5.77,5.78,5.78,5.64,5.75,5.81,> 200
Cc1cccc(N)c1 [3-Methylaniline],5.82,5.86,5.86,5.88,5.91,5.99,5.79,> 200
"COc1cc(-c2ccc(N)c(OC)c2)ccc1N [3,3'-Dimethoxybenzidine)]",6,6.08,6.05,6.07,6.06,6.03,5.74,> 200
COc1cnc(OC)n2nc(NS(=O)(=O)c3c(OCC(F)F)cccc3C(F)(F)F)nc12 [Penoxsulam],6.17,6.06,5.98,6.03,6.01,6.02,5.72,> 200
"Nc1cccc2c(N)cccc12 [1,5-Diaminonaphthalene]",5.81,5.79,5.81,5.77,5.64,5.53,5.73,> 200
O=C(O)c1ccc2c(c1)nc(C(=O)NC1CCN(C3CC3)CC1)n2Cc1cc(-c2ccc(Cl)s2)on1,5.76,5.81,5.71,5.87,5.82,5.69,5.86,> 200
C=CCc1ccc(OC)c(OC)c1 [Methyleugenol],6,5.97,6.02,5.98,5.99,5.99,5.7,> 200
CC(Oc1cccc(Cl)c1)C(=O)O (stereo unspecified) [Cloprop],5.97,5.98,6.03,6.09,6.01,5.99,5.69,> 200
"CC(C)=CCC/C(C)=C/C=O [3,7-Dimethyl-2,6-octadienal]",5.72,5.74,5.77,5.84,5.78,5.88,5.73,> 200
NC(=O)N1c2ccccc2C=Cc2ccccc21 [Carbamazepine],5.86,5.85,5.88,5.83,5.88,5.85,5.67,> 200
Cc1ccc(O)cc1 [4-Methylphenol],5.84,5.98,5.92,5.87,5.96,5.8,5.83,> 200
"Cc1ccc(N=C=O)cc1N=C=O [Toluene-2,4-diisocyanate]",5.73,5.8,5.73,5.78,5.7,5.61,5.67,> 200
CC(C)=CCC/C(C)=C/CO [Geraniol],5.92,5.94,5.89,6.03,5.99,6.04,5.72,> 200
COc1ccc2c(c1)c(CC(=O)O)c(C)n2C(=O)c1ccc(Cl)cc1 [Indomethacin],6.03,5.93,5.95,5.96,5.93,5.93,5.83,> 200
Cc1ccc(C(C)C)cc1 [p-Cymene],5.73,5.99,6.14,6.05,6.08,6.06,5.92,> 200
C[C@@]1(c2ccc(Oc3ccccc3)cc2)OC(=O)N(Nc2ccccc2)C1=O (racemic) [Famoxadone],5.8,5.77,5.7,5.8,5.75,5.83,5.67,> 200
"Cc1cccc([N+](=O)[O-])c1C [1,2-Dimethyl-3-nitrobenzene]",5.81,5.89,5.83,5.77,5.86,5.83,5.79,> 200

Compound,mean nematode size ln(EXT) (ln) ([1]; 0.5 µM),mean nematode size ln(EXT) (ln) ([1]; 1 µM),mean nematode size ln(EXT) (ln) ([1]; 5 µM),mean nematode size ln(EXT) (ln) ([1]; 10 µM),mean nematode size ln(EXT) (ln) ([1]; 50 µM),mean nematode size ln(EXT) (ln) ([1]; 100 µM),mean nematode size ln(EXT) (ln) ([1]; 200 µM),lowest effective concentration [2] [µM]
CCO[Si](CCCNC(N)=O)(OCC)OCC [3-Ureidopropyltriethoxysilane],5.84,5.83,5.84,5.8,5.74,5.63,5.84,> 200
CCCCc1ccc2c(n1)[C@@H](c1ccc(OC)cc1C[C@H](C)C(=O)O)[C@H](C(=O)O)[C@H]2c1ccc2c(c1)OCO2,5.82,5.87,5.83,6.32,5.91,5.95,5.88,> 200
Cc1cn([C@H]2C=C[C@@H](CO)O2)c(=O)[nH]c1=O [Stavudine],5.47,5.53,5.6,5.67,5.69,5.7,5.93,> 200
COCCOCCOC [Bis(2-methoxyethyl) ether],5.88,5.82,5.78,5.69,5.85,5.83,5.8,> 200
O=S(=O)(O)c1ccc(N=Nc2c(O)ccc3cc(S(=O)(=O)O)ccc23)cc1 [FD&C Yellow no. 6],5.95,5.86,5.74,5.85,5.89,5.91,5.84,> 200
CC(O)CO (stereo unspecified) [Propylene glycol],6.09,5.99,6.05,6.02,5.91,5.9,5.71,> 200
Nc1nc(N)nc(NC2CC2)n1 [Cyromazine],5.45,5.67,5.56,5.57,5.42,6.14,5.94,> 200
"Oc1ccc(Cl)cc1Cl [2,4-Dichlorophenol]",6.05,6.13,6.07,6.04,6.03,6.03,6.92,> 200
Nc1ccc(-c2ccc(N)cc2)cc1 [Benzidine],6.06,6.02,5.91,5.98,5.81,5.75,5.97,> 200
CNC(=O)CSP(=S)(OC)OC [Dimethoate],6.23,6.15,6.18,6.23,6.24,6.21,5.95,> 200
Cn1c(=O)c2c(ncn2C)n(C)c1=O [Caffeine],5.87,5.94,5.87,5.91,5.94,5.85,5.75,> 200
CC1=C(C)S(=O)(=O)CCS1(=O)=O [Dimethipin],5.96,5.96,5.91,5.93,5.98,6,5.93,> 200
CC(=O)OCCC(C)C [Isoamyl acetate],5.95,5.84,5.89,5.79,5.86,5.83,5.75,> 200
CCCCC(CC)COC(=O)c1ccccc1C(=O)OCC(CC)CCCC (stereo unspecified) [Diethylhexyl phthalate],5.9,5.91,5.76,5.85,5.67,6.02,5.76,> 200
COc1ccccc1N [2-Anisidine],5.76,5.78,5.84,5.82,5.83,5.81,5.78,> 200
OC[C@H]1O[C@@](CO)(O[C@H]2O[C@H](CO)[C@@H](O)[C@H](O)[C@H]2O)[C@@H](O)[C@@H]1O [Sucrose],6.01,5.97,6.04,5.98,5.84,5.87,5.82,> 200
"Cc1ccc(C)c(C)c1 [1,2,4-Trimethylbenzene]",5.8,5.84,5.88,5.84,5.91,5.89,5.71,> 200
"CCN(CC)CCO [N,N-Diethylethanolamine]",5.86,5.89,5.91,5.81,5.83,5.76,5.78,> 200
CCCCCCCCCCCCCCC [Pentadecane],5.88,5.95,5.94,6.03,5.95,5.87,5.74,> 200
CCCC(CCC)C(=O)O [Valproic Acid],5.81,5.92,6.12,6.03,6.06,6.03,5.91,> 200
"C[C@](N)(Cc1ccc(O)c(O)c1)C(=O)O [(-)-3-(3,4-Dihydroxyphenyl)-2-methyl-L-alanine sesquihydrate]",5.88,5.88,5.89,5.89,5.88,5.87,5.85,> 200

# Source: the supplement of paper PMC4858399
